Assay results published in US20130084257A1, “TRANSDERMAL ABSORPTION PROMOTER, AND EXTERNAL SKIN FORMULATION THEREOF” (TAKASAGO INTERNATIONAL CORPORATION, priority 2010, published 2013).
Where two headings read alike, the source gives them in different places.

Legend:
[1] = hairless, mouse, 2 mass %, pH 7.4
Protocol: (§1) A skin specimen extirpated from a hairless mouse was placed in a vertical diffusion cell, with the dermal horny layer side being in the donor side and the dermal basement membrane side being in the receiver side. 16 mL of a phosphate-buffered physiological saline solution (PBS solution) (pH 7.4) was added to the receiver side. The cell was heated in a water bath at 37° C. 30 minutes after starting heating, 1.0 g of a hydrogel, having been heated to 37° C., was applied to the donor side using a needleless syringe. The receiver solution was collected in 1 mL portions at specific time intervals. To the receiver side, the PBS solution was added in 1 mL portions to make up for the collected portions.
(§2) The receiver solution thus collected was subjected to high performance liquid chromatography (HPLC) and the amount of permeated paroxetine was calculated.

[2] = Skin permeability test: effect of promoting transdermal absorption of antipyrine (vertical diffusion cell); conditions: hydrogel with 2 mass % antipyrine and 2 mass % test sample; hairless mouse skin; receiver PBS pH 7.4; 37° C.; n = 5
Protocol: as §1, §2

[3] = Skin permeability test: effect of promoting transdermal absorption of paroxetine (vertical diffusion cell); type: in vitro ADME; conditions: hydrogel with 1 mass % paroxetine and 2 mass % test sample; hairless mouse skin; receiver PBS pH 7.4; 37° C.; n = 5
Text: As a control, purified water was used as a substitute for the test samples.
Device: Elite LaChrom System (manufactured by Hitachi Ltd.)
Column: YMS-Pack ODS-A 4.6 mm×150 mm (manufactured by YMC Co., Ltd.)
Eluent: phosphate buffer (pH 3.5)/acetonitrile=35/65 (V/V)
Measurement wavelength: 235 nm

Flux of antipyrine (transdermal absorption amount per unit time and unit area) [1]	Lagtime of antipyrine (transdermal absorption speed) [1]	SMILES	Flux of antipyrine (transdermal absorption amount per unit time and unit area) [2]	Lagtime of antipyrine (transdermal absorption speed) [2]	Flux of paroxetine (transdermal absorption amount per unit time and unit area) [3]	Lagtime of paroxetine (transdermal absorption speed) [3]
150.71 ± 5.46 μg/cm^2/h	3.20 ± 0.24 h	CC1CCC(C(C)C)C(OCC(C)(O)CO)C1 (centres unmarked) [CA1, 2-methyl-3-(menthoxy)propane-1,2-diol]				
224.59 ± 19.56 μg/cm^2/h	1.36 ± 0.28 h	CC1CCC(C(C)C)C(OCCO)C1 (centres unmarked) [CA5, 2-(menthoxy)ethanol]				
		CC1CCC(C(C)C)C(O)C1 (centres unmarked) [Sample 1-Menthol, 1-menthol]	300.52 ± 34.42 μg/cm^2/h	0.53 ± 0.02 h	185 ± 31.1 μg/cm^2/h	3.84 ± 1.60 h
